Test results taken from ChEMBL document CHEMBL5506024, “Multitarget μ-Opioid Receptor Agonists─Neuropeptide FF Receptor Antagonists Induce Potent Antinociception with Reduced Adverse Side Effects” (J Med Chem, 2024).
Calls of active or inactive are those of the source. No cut-off for these calls is given here.

Tests used:
Mu-type opioid receptor [1] = molecular target: T1, Mu-type opioid receptor (Homo sapiens, UniProt P35372); assay: Agonist activity at human MOP expressed in HEK293 cells coexpressing GloSensor-20F assessed as inhibition of forskolin-induced cAMP accumulation; type: functional, cell-based
T1 sequence (P35372 whole entry): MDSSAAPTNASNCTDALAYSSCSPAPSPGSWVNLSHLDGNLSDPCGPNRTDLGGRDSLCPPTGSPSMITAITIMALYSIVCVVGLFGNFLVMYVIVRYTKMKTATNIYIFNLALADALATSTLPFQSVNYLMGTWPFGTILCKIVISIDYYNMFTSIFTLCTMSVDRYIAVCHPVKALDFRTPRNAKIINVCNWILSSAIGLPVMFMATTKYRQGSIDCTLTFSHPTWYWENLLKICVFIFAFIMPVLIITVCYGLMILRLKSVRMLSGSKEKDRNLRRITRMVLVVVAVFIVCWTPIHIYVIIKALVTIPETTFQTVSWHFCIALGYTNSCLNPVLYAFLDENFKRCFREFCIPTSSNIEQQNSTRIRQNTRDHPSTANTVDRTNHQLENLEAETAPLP

Mu-type opioid receptor [2] = molecular target: T1, Mu-type opioid receptor; assay: Agonist activity at human MOP expressed in HEK293 cells coexpressing GloSensor-20F assessed as inhibition of forskolin-induced cAMP accumulation relative to control; type: functional, cell-based; details: filed as agonist
Mu-type opioid receptor [3] = molecular target: T1, Mu-type opioid receptor; assay: Agonist activity at human Rluc8-tagged MOP expressed in HEK293 cells coexpressing eYFP-tagged beta-arrestin-2 assessed as beta-arrestin-2 recruitment incubated for 5 mins by luminometer analysis; type: functional, cell-based
Mu-type opioid receptor [4] = molecular target: T1, Mu-type opioid receptor; assay: Agonist activity at human Rluc8-tagged MOP expressed in HEK293 cells coexpressing eYFP-tagged beta-arrestin-2 assessed as beta-arrestin-2 recruitment incubated for 5 mins by luminometer analysis relative to control; type: functional, cell-based
[5] = Induction of naltrexone-precipitated withdrawal syndrome in sc dosed C57BL/6N mouse assessed as diarrhea administered for 8 days followed by naltrexone addition on day 9 after 2 hrs post last dose and measured after 30 mins; type: toxicity, organism-based; details: in vivo, 216.5 h, time 12990 min
[6] = molecular target: T2, Neuropeptide FF receptor 1 (Homo sapiens, UniProt Q9GZQ6); assay: Displacement of [125I]-1DMeNPFF from human NPFFR1 expressed in CHO cell membrane at 0.5 uM incubated for 1 hr by Topcount counting method relative to control; type: cell membranes
T2 sequence (Q9GZQ6 whole entry): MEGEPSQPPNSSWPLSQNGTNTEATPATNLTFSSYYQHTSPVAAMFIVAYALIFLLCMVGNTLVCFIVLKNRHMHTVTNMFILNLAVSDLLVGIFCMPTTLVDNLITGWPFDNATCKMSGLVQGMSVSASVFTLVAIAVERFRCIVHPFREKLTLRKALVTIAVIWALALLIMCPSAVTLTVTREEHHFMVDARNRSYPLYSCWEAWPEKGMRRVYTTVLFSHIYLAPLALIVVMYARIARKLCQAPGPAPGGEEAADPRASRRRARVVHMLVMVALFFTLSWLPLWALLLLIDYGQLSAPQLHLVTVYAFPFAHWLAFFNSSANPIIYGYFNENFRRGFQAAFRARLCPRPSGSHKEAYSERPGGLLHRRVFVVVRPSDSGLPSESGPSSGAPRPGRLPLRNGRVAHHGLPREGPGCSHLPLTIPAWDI

[7] = molecular target: T2, Neuropeptide FF receptor 1; assay: Antagonist activity at human NPFFR1 expressed in CHO cell membrane assessed as inhibition of NPVF induced cAMP response at 5 uM incubated for 1 hr by Topcount counting method relative to control; type: functional, cell membranes; design: scale not given: the % may be the effect or the level left
[8] = molecular target: T3, Neuropeptide FF receptor 2 (Homo sapiens, UniProt Q9Y5X5); assay: Displacement of [125I]-1DMeNPFF from human NPFFR2 expressed in CHO cell membrane at 0.05 uM incubated for 1 hr by Topcount counting method relative to control; type: cell membranes; details: filed as antagonist
T3 sequence (Q9Y5X5 whole entry): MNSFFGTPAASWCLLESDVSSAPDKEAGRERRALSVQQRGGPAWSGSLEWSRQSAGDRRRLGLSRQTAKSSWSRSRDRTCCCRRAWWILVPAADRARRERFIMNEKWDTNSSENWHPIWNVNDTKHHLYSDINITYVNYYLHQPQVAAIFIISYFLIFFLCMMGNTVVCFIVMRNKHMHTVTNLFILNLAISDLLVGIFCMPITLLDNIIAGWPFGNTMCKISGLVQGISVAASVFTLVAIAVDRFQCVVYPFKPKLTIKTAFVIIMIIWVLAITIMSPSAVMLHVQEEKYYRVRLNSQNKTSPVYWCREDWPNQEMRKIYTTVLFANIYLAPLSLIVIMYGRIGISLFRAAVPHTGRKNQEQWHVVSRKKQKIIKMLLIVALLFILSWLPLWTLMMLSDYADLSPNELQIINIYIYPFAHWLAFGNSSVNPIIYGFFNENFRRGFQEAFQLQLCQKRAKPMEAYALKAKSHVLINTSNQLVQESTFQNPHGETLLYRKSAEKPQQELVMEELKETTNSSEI

[9] = molecular target: T3, Neuropeptide FF receptor 2; assay: Antagonist activity at human NPFFR2 expressed in CHO cell membrane assessed as inhibition of NPVF induced cAMP response at 5 uM incubated for 1 hr by Topcount counting method relative to control; type: functional, cell membranes; design: scale not given: the % may be the effect or the level left; details: filed as antagonist
[10] = molecular target: T2, Neuropeptide FF receptor 1; assay: Displacement of [125I]-1DMeNPFF from human NPFFR1 expressed in CHO cell membrane incubated for 1 hr by Topcount counting method; type: cell membranes
[11] = molecular target: T2, Neuropeptide FF receptor 1; assay: Antagonist potency at human NPFFR1 expressed in CHO cell membrane assessed as inhibition of NPVF induced cAMP response incubated for 1 hr by Topcount counting method; type: functional, cell membranes; details: read-out: pA2 (converted)
[12] = molecular target: T3, Neuropeptide FF receptor 2; assay: Displacement of [125I]-1DMeNPFF from human NPFFR2 expressed in CHO cell membrane incubated for 1 hr by Topcount counting method; type: cell membranes
[13] = molecular target: T3, Neuropeptide FF receptor 2; assay: Antagonist potency at human NPFFR2 expressed in CHO cell membrane assessed as inhibition of NPVF induced cAMP response incubated for 1 hr by Topcount counting method; type: functional, cell membranes; details: read-out: pA2 (converted)
[14] = molecular target: Delta-type opioid receptor (Homo sapiens) (UniProt P41143); assay: Agonist activity at human DOP expressed in HEK293 cells assessed as inhibition of forskolin-induced cAMP accumulation; type: functional, cell-based; details: filed as agonist
Chain of Delta-type opioid receptor (Homo sapiens) (P41143 whole entry): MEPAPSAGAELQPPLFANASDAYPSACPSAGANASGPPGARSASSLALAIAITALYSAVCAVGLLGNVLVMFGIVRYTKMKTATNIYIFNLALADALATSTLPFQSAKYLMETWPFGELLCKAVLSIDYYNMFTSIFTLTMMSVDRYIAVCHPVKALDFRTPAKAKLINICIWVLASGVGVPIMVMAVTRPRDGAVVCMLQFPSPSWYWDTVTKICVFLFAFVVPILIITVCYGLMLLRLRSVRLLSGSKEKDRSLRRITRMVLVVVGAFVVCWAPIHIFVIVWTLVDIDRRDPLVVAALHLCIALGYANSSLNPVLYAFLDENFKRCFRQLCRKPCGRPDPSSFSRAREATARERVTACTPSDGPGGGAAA

[15] = molecular target: T4, Kappa-type opioid receptor (Homo sapiens, UniProt P41145); assay: Antagonist activity at human KOR expressed in HEK293 cells assessed as forskolin-induced cAMP accumulation in presence of IBMX; type: functional, cell-based; details: read-out: pA2 (converted)
T4 sequence (P41145 whole entry): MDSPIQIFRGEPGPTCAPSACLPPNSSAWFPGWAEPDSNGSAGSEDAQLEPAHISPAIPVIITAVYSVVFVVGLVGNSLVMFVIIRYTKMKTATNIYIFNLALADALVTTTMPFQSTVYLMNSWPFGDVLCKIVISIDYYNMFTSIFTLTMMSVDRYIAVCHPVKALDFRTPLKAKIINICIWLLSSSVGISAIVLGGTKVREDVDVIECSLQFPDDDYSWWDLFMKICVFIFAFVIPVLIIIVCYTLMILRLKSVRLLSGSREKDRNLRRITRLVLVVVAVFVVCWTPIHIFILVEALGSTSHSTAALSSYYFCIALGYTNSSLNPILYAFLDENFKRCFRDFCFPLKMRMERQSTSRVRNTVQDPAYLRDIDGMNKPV

[16] = molecular target: Nociceptin receptor (Homo sapiens) (UniProt P41146); assay: Antagonist activity at human NOR expressed in HEK293 cells assessed as forskolin-induced cAMP accumulation in presence of IBMX; type: functional, cell-based; details: filed as antagonist
Chain of Nociceptin receptor (Homo sapiens) (P41146 whole entry): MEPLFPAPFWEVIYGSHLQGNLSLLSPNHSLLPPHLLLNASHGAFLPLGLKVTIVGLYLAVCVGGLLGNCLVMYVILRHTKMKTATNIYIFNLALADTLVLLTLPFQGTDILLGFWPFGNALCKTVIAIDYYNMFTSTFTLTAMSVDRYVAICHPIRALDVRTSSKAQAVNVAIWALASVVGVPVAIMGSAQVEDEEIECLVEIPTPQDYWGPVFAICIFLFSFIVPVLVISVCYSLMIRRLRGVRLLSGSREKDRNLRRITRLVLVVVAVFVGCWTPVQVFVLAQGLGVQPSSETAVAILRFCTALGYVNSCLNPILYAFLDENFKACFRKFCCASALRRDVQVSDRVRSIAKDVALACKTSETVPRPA

[17] = molecular target: T5, Prolactin-releasing peptide receptor (Homo sapiens) (UniProt P49683); assay: Agonist activity at human GPR10 expressed in CHO cells assessed as intracellular calcium release upto 10 uM by Fluo-4 AM dye based calcium mobilization assay; type: functional, cell-based
T5 sequence (whole entry): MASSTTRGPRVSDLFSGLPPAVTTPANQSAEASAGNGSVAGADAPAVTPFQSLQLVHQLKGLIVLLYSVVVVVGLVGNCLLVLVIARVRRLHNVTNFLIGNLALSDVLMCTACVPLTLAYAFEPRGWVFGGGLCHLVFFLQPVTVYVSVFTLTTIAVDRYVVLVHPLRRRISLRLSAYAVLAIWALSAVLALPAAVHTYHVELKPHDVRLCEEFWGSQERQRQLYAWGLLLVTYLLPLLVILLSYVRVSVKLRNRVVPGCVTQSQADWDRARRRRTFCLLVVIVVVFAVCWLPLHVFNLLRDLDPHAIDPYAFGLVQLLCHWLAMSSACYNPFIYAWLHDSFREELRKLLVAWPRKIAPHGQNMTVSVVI

[18] = molecular target: KiSS-1 receptor (Homo sapiens) (UniProt Q969F8); assay: Agonist activity at human GPR54 expressed in CHO cells assessed as intracellular calcium release upto 10 uM by Fluo-4 AM dye based calcium mobilization assay; type: functional, cell-based
Chain of KiSS-1 receptor (Homo sapiens) (Q969F8 whole entry): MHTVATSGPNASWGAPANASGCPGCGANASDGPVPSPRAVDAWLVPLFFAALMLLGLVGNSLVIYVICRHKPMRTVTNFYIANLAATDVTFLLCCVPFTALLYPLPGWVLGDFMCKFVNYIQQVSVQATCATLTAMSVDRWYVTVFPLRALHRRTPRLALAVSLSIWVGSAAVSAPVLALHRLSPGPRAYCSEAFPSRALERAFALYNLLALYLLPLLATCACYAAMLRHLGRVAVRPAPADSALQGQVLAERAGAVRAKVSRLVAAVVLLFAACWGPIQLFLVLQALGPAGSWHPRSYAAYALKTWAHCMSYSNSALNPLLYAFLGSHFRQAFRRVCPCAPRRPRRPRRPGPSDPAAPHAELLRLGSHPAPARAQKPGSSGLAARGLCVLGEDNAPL

[19] = molecular target: T6, Pyroglutamylated RF-amide peptide receptor (Homo sapiens) (UniProt Q96P65); assay: Agonist activity at human GPR103 expressed in CHO cells assessed as intracellular calcium release upto 10 uM by Fluo-4 AM dye based calcium mobilization assay; type: functional, cell-based
T6 sequence (whole entry): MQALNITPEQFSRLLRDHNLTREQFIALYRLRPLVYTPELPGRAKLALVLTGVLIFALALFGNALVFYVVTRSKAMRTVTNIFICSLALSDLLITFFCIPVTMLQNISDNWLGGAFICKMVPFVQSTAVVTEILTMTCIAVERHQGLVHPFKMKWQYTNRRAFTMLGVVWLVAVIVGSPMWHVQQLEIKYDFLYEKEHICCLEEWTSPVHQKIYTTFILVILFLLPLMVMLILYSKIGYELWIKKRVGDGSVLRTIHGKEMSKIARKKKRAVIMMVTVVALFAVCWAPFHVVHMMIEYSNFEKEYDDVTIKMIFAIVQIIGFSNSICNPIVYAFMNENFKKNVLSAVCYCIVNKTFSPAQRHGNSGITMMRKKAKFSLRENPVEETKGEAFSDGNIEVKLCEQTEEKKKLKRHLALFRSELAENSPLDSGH

[20] = molecular target: T5, Prolactin-releasing peptide receptor (Homo sapiens); assay: Antagonist activity at human GPR10 expressed in CHO cells assessed as intracellular calcium release upto 10 uM by Fluo-4 AM dye based calcium mobilization assay; type: functional, cell-based
[21] = molecular target: KiSS-1 receptor (Homo sapiens) (UniProt Q969F8); assay: Antagonist activity at human GPR54 expressed in CHO cells assessed as intracellular calcium release upto 10 uM by Fluo-4 AM dye based calcium mobilization assay; type: functional, cell-based
[22] = molecular target: T6, Pyroglutamylated RF-amide peptide receptor (Homo sapiens); assay: Antagonist activity at human GPR103 expressed in CHO cells assessed as intracellular calcium release upto 10 uM by Fluo-4 AM dye based calcium mobilization assay; type: functional, cell-based
[23] = Cmax in mouse at 10 mg/kg, sc measured upto 24 hrs by LC-MS/MS analysis; type: ADME, organism-based; details: in vivo
[24] = Tmax in mouse at 10 mg/kg, sc measured upto 24 hrs by LC-MS/MS analysis; type: ADME, organism-based; details: in vivo
[25] = Half life in mouse at 10 mg/kg, sc measured upto 24 hrs by LC-MS/MS analysis; type: ADME, organism-based; details: in vivo
[26] = Drug concentration in mouse plasma at 10 mg/kg, sc measured after 2 hrs by LC-MS/MS analysis; type: ADME, organism-based
Mus musculus [27] = assay: Antinociceptive activity in mouse at 2.5 to 10 mg/kg, sc measured after 6 hrs by tail immersion test; type: functional, organism-based; details: dose 2.5-10 mg/kg
Mus musculus [28] = assay: Antinociceptive activity in mouse at 4.2 umol/kg, sc administered chronically and measured on day 1; type: functional, organism-based; details: dose 4.2 µmol/kg
Mus musculus [29] = assay: Antinociceptive activity in mouse at 4.2 umol/kg, sc administered chronically and measured on day 8; type: functional, organism-based; details: dose 4.2 µmol/kg
Mus musculus [30] = assay: Antinociceptive activity in mouse at 4.2 umol/kg, sc administered daily and measured on day 1 and 8; type: functional, organism-based; details: dose 4.2 µmol/kg
[31] = Induction of naltrexone-precipitated withdrawal syndrome in sc dosed C57BL/6N mouse assessed as paw tremor administered for 8 days followed by naltrexone addition on day 9 after 2 hrs post last dose and measured after 30 mins; type: toxicity, organism-based; details: in vivo, 216.5 h, time 12990 min
[32] = Induction of naltrexone-precipitated withdrawal syndrome in sc dosed C57BL/6N mouse assessed as wet dog shake counts administered for 8 days followed by naltrexone addition on day 9 after 2 hrs post last dose and measured after 30 mins; type: toxicity, organism-based; details: in vivo, 216.5 h, time 12990 min
[33] = Induction of naltrexone-precipitated withdrawal syndrome in sc dosed C57BL/6N mouse assessed as high jumping score administered for 8 days followed by naltrexone addition on day 9 after 2 hrs post last dose and measured after 30 mins; type: toxicity, organism-based; details: in vivo, 216.5 h, time 12990 min
[34] = Induction of motor coordination impairment in C57BL/6 mouse at 12 mg/kg, sc by rotarod assay; type: toxicity, organism-based; details: in vivo
[35] = Toxicity in C57BL/6N mouse assessed as induction of respiratory depression by measuring decrease in pulmonary rate at 4 to 36 mg/kg, sc by plethysmography; type: organism-based; details: in vivo, dose 4-36 mg/kg
[36] = molecular target: T4, Kappa-type opioid receptor; assay: Partial agonist activity at human KOR expressed in HEK293 cells assessed as forskolin-induced cAMP accumulation in presence of IBMX; type: functional, cell-based; details: filed as partial agonist
[37] = molecular target: Nociceptin receptor (Homo sapiens) (UniProt P41146); assay: Partial agonist activity at human NOR expressed in HEK293 cells assessed as forskolin-induced cAMP accumulation in presence of IBMX; type: functional, cell-based; details: filed as partial agonist

Row | Structure (SMILES) | Emax (Mu-type opioid receptor [2]) [%] | Activity [8] [%] | Activity [9] [%] | Ki [10] [µM] | Kb [11] [µM] | Ki [12] [µM] | Kb [13] [µM] | Activity [14] | Activity [17] | Activity [18] | Activity [19] | Activity [20] | Activity [21] | Activity [22] | Cmax [23] [nM] | Tmax [24] [h] | half-life [25] [h] | concentration at 2 h [26] [nM] | Activity (Mus musculus [27]) | other results
1 | Cc1cc(O)cc(C)c1C[C@H](NC(=N)N)C(=O)N[C@H](CCCNC(=N)N)C(=O)N[C@H]1Cc2ccccc2CN(CCC(=O)N[C@@H](CCCN2CCC(Cc3ccccc3)CC2)C(=O)N[C@@H](Cc2ccccc2)C(N)=O)C1=O | 66 | 91 | 71 | 0.075 | 0.24 | 0.0047 | 0.11 | Active | inactive | inactive | inactive | inactive | inactive | inactive | 887 | 1.67 | 3.1 | 593 | Active | EC50 (Mu-type opioid receptor [1]): 0.0099 µM; EC50 (Mu-type opioid receptor [3]; read-out: EC50): 0.119 µM; Emax (Mu-type opioid receptor [4]): 15%; Activity [5]: Non-Toxic; Activity ([6]; filed as antagonist): 93%; Activity ([7]; filed as antagonist): 65%; Kb [15]: 0.000331 µM; Activity [16]: Active; Activity (Mus musculus [28]): Active; Activity (Mus musculus [29]): inactive; Activity (Mus musculus [30]): Active; Activity [31]: Non-Toxic; Activity [32]: Non-Toxic; Activity [33]: Toxic; Activity [34]: Non-Toxic; Activity [35]: Non-Toxic
2 | Cc1cc(O)cc(C)c1C[C@H](N)C(=O)N(C)[C@H](C)C(=O)N[C@H]1Cc2c(ccc3ccccc23)CN(CC(=O)N[C@@H](CCCN2CCC(Cc3ccccc3)CC2)C(=O)N[C@@H](Cc2ccccc2)C(N)=O)C1=O | 73 | 51 | 80 | 1.17 | 5.89 | 0.054 | 0.102 | Active | inactive | inactive | inactive | inactive | inactive | inactive | 446 | 1.83 | 3.88 | 474 | Active | EC50 (Mu-type opioid receptor [3]; hek293): Not Active; Activity [6]: 22%; Activity [7]: 3%; Activity [36]: Active; Activity [37]: Active
